Results reported in patent publication US10426162B2, “Interaction between antimicrobial quaternary compounds and anionic surfactants” (Ecolab USA Inc., priority 2016, dated 2019).

Legend:
[1] = Dynamic surface tension (SITA science line t60 bubble pressure); details: for dynamic surface tension: 100 ppm Bardac […] + sulfate based anionic surfactant at mole:mole ratio, FIGS. 4A-4C
Description: The SITA science line t60 measures the dynamic surface tension of liquids up to the semi-static range. Air bubbles are generated from a capillary with known radius. The bubble pressure is measured as a function of bubble life time, which can be correlated to the surface tension according to the Young-Laplace equation.
The SITA science line t60 was calibrated with DI water. Clean water samples after calibration should have a surface tension of 72.0 ±1.0 mN/m (depending on the quality and temperature). Following calibration, the SITA was programmed to take readings at the desired time intervals (i.e., 0.3, 1.6, 3.0, 9.1 seconds). In order to determine the effects on the surface activity of a 9:1 mass ratio of quaternary ammonium compound with an anionic surfactant the following compositions were prepared.
10-15 mL were transferred into 20 mL vials and immersed in a heated oil bath to 72° C. (160° F.)±2° C. The samples were equilibrated for 10-15 minutes. The samples were individually removed from the oil bath and tested in the SITA. After each sample was tested the SITA's cleaning procedure was run, then the surface tension of DI water was checked to ensure the SITA was adequately clean. If the DI water measurements were not within 72.0±1.0 mN/m, then the cleaning procedure was run again.
The SITA science line t60 was calibrated with DI water. Clean water samples after calibration should have a surface tension of 72.0±1.0 mN/m (depending on the quality and temperature). Following calibration, the SITA was programmed to take readings at the desired time intervals (i.e., 0.3, 1.6, 3.0, 9.1 seconds). In order to determine the effects on the dynamic surface tension of Bardac LF80 and varying concentrations of Acusol 445 the following five solutions were analyzed at pH 7.0; 100 ppm Bardac LF80; 10 ppm Acusol 445; 100 ppm Bardac LF80+10 ppm Acusol 445; 100 ppm Bardac LF80+30 ppm Acusol 445; and 100 ppm Bardac LF80+75 ppm Acusol 445.

[2] = tested on: Escherichia coli; experiment: Antimicrobial suspension test of quat-anionic surfactant compositions (Examples 6-7); type: cell-based; details: for antimicrobial efficacy against E. coli (log reduction of bacteria): 300 ppm Bardac […] + anionic surfactant, mole:mole ratio, pH 8, FIG. 7; for log reduction of bacteria for E. coli: 300 ppm active Bardac […] + anionic surfactant, 7.5/1 mass ratio, FIG. 6A
[3] = tested on: Staphylococcus; experiment: Antimicrobial suspension test of quat-anionic surfactant compositions (Examples 6, 8); type: cell-based, Staphylococcus aureus; details: for kill properties on Staphylococcus: 300, 150 and 75 ppm active Bardac […] + anionic surfactant, 7.5:1 mass ratio, pH 8, FIG. 8; for antimicrobial efficacy against Staphylococcus: FIG. 6A
[4] = tested on: bacteria; experiment: Antimicrobial efficacy at pH 8.0, 7.5 to 1 mass ratio (FIG. 6B); type: cell-based; details: 7.5/1 mass ratio; for antimicrobial efficacy: 150 ppm Bardac […] + anionic surfactant; for log reduction of bacteria: 300 ppm Bardac […] + anionic surfactant
Description: Further examination of the antimicrobial efficacy of a quaternary ammonium compound in association with an anionic surfactant at pH 8.0 was performed as described above.

[5] = tested on: E. coli; experiment: Third sink sanitizer (Example 12); type: cell-based, Escherichia coli; details: 500 ppm water hardness, neutral pH versus pH 4.5
Description: The antimicrobial efficacy of quaternary ammonium compounds and anionic surfactants for use as a third sink sanitizer were evaluated as shown in Table 10.

[6] = 100 ppm Bardac […] + anionic carboxylate surfactant at mole:mole ratio, FIG. 3A
[7] = 300 ppm Bardac […] + anionic surfactant, mole:mole ratio
[8] = Bardac […] + anionic sulfate surfactant at mole:mole ratio, FIG. 2
[9] = 300 ppm active Bardac […] + anionic surfactant, 7.5/1 mass ratio

Compound	dynamic surface activity (surface tension versus bubble life time) [1, 6]	antimicrobial efficacy against E. coli (log reduction of bacteria) [2]	kill properties on Staphylococcus [3]	antimicrobial efficacy [4]	log reduction of bacteria [4]	dynamic surface activity (surface tension versus bubble life time) [1, 8]	other results
CCCCCCCC/C=C\CCCCCCCC(=O)O [Oleic acid]	capable of increasing the surface activity, to variable extents, compared to Bardac 205M alone						
CCCCC(CC)C(=O)O (centres unmarked) [ethylhexoic acid]	capable of increasing the surface activity, to variable extents, compared to Bardac 205M alone	highest log reduction of bacteria	excellent kill properties on Staphylococcus	good antimicrobial efficacy	highest log reduction of bacteria		
CCCCCCCCS(=O)(=O)[O-].[Na+] [NAS-FAL, sodium n-octanesulfonate]		reduce the antimicrobial activity of the quaternary ammonium compound			highest log reduction of bacteria	rapid increase in surface activity	antimicrobial efficacy against Staphylococcus [3, 7]: good antimicrobial efficacy against Staphylococcus; dynamic surface tension [1]: synergistic trend in regards to reduced surface tension
CCCCCCCCCCCC(=O)O [lauric acid]	capable of increasing the surface activity, to variable extents, compared to Bardac 205M alone						
CCCCCCCCCC(=O)O [decanoic acid]		reduce the antimicrobial activity of the quaternary ammonium compound	excellent kill properties on Staphylococcus	good antimicrobial efficacy	highest log reduction of bacteria		effect on the antimicrobial efficacy of the quat [5]: “synergizes” the quat; effect on the antimicrobial efficacy of the quat ([5]; listed as decanoate): “deactivates” quat; dynamic surface tension, effect of pH ([1]; 100 ppm Bardac […] + 56 ppm decanoic acid mole:mole, pH 3.6-10.2, FIG. 5B): independent of pH; dynamic surface activity (surface tension versus bubble life time) ([1]; 100 ppm Bardac […] alone, 100 ppm Decanoate alone, or 100 ppm Bardac […] + 10-70 ppm Decanoic acid, FIG. 3B): limited surface activity
CCCCCCCCCCCCOS(=O)(=O)[O-].[Na+] [SLS, sodium lauryl sulfate]		reduce the antimicrobial activity of the quaternary ammonium compound			highest log reduction of bacteria	overall increase in surface activity compared to Bardac 205M alone, but displayed slower dynamics	log reduction of bacteria for E. coli [2]: highest log reduction of bacteria for E. coli; antimicrobial efficacy against Staphylococcus [3, 9]: good antimicrobial efficacy against Staphylococcus; dynamic surface tension [1]: reduced dynamic surface tension, as compared to either the quaternary ammonium compound or the anionic surfactant alone
CC(C(=O)[O-])N(CC(=O)[O-])CC(=O)[O-].[Na+].[Na+].[Na+] (centres unmarked) [Trilon M, methyl glycine diacetic acid (MGDA)]							dynamic surface activity, effect of pH ([1]; 100 ppm Bardac LF80 + 100 ppm Trilon M at pH 3.0, 9.0, 11.0, FIG. 21): independent of pH
sodium lauryl ether sulfate [SLES]		reduce the antimicrobial activity of the quaternary ammonium compound		good antimicrobial efficacy	highest log reduction of bacteria	overall increase in surface activity compared to Bardac 205M alone, but displayed slower dynamics	log reduction of bacteria for E. coli [2]: highest log reduction of bacteria for E. coli; antimicrobial efficacy against Staphylococcus [3, 9]: good antimicrobial efficacy against Staphylococcus; dynamic surface activity (surface tension versus bubble life time) ([1]; 100 ppm Bardac […] + surfactant at 9:1 mass ratio, 160° F., FIG. 1): do not display the synergistic boost in surface activity
CCCCC(CC)COS(=O)(=O)[O-].[Na+] (centres unmarked) [EH-S, Sodium 2-ethyl hexyl sulfate]		reduce the antimicrobial activity of the quaternary ammonium compound	excellent kill properties on Staphylococcus		highest log reduction of bacteria	rapid increase in surface activity	log reduction of bacteria for E. coli [2]: highest log reduction of bacteria for E. coli; antimicrobial efficacy against Staphylococcus [3, 7]: good antimicrobial efficacy against Staphylococcus; dynamic surface tension [1]: synergistic reduction of surface tension
CCCCCCCC(=O)O [octanoic acid]	capable of increasing the surface activity, to variable extents, compared to Bardac 205M alone	highest log reduction of bacteria	excellent kill properties on Staphylococcus	good antimicrobial efficacy	highest log reduction of bacteria		
CC(O)(P(=O)(O)O)P(=O)(O)O [HEDP, 1-hydroxy ethylidene-1,1-diphosphonic acid]							dynamic surface activity ([1]; 100 ppm Bardac LF80 + 10-75 ppm HEDP, pH 7.0, FIG. 18): increase in dynamic surface activity of Bardac LF80 in combination with HEDP
